The values below come from patent US7495008B2, “Spiro-piperidine derivatives” (Hoffmann-La Roche Inc., priority 2006, dated 2009).

The structures appear in SMILES notation.

The target in the assay is T1, human V1a receptor (Homo sapiens, UniProt P37288).
T1 construct: expressed in transfected cells; host or cells: HEK293 cells, transiently transfected; membranes prepared
T1 sequence (P37288 whole entry): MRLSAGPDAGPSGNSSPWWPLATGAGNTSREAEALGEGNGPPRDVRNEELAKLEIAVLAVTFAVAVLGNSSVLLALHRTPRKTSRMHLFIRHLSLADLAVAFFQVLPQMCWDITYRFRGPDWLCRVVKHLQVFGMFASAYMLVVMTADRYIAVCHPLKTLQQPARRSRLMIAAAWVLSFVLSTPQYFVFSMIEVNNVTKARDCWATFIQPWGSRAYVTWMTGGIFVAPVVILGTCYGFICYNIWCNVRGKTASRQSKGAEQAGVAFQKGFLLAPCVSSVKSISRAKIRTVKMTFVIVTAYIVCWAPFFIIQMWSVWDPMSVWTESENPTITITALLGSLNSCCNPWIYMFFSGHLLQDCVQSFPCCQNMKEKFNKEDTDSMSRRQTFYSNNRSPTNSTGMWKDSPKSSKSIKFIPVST
The assay is described as follows: V1a receptor binding study (3H-Vasopressin SPA, HEK293 membranes). Conditions: membranes of HEK293 cells transiently transfected with human V1a receptor, Ki by Cheng-Prussoff equation, read-out: pKi hV1a (converted). As to the method: The human V1a receptor was cloned by RT-PCR from total human liver RNA. The coding sequence was subcloned in an expression vector after sequencing to confirm the identity of the amplified sequence. […] Cell membranes were prepared from HEK293 cells transiently transfected with the expression vector and grown in 20 liter fermenters with the following protocol.
50 g of cells were resuspended in 30 ml freshly prepared ice cold Lysis buffer (50 mM HEPES, 1 mM EDTA, 10 mM MgCl2 adjusted to pH=7.4+complete cocktail of protease inhibitor (Roche Diagnostics)); homogenized with Polytron for 1 min; and sonicated on ice for 2×2 minutes at 80% intensity (Vibracell sonicator). The preparation was centrifuged 20 min at 500 g at 4° C., the pellet was discarded and the supernatant centrifuged 1 hour at 43,000 g at 4° C. (19,000 rpm). The pellet was resuspended in 12.5 ml Lysis buffer+12.5 ml Sucrose 20% and homogenized using a Polytron for 1-2 min. The protein concentration was determined by the Bradford method and aliquots were stored at −80° C. until use. For binding studies 60 mg Yttrium silicate SPA beads (Amersham) were mixed with an aliquot of membrane in binding buffer (50 mM Tris, 120 mM NaCl, 5 mM KCl, 2 mM CaCl2, 10 mM MgCl2) for 15 minutes with mixing. 50 ul of bead/membrane mixture was then added to each well of a 96 well plate, followed by 50 ul of 4 nM 3H-Vasopressin (American Radiolabeled Chemicals). For total binding measurement 100 ul of binding buffer were added to the respective wells, for non-specific binding 100 ul of 8.4 mM cold vasopressin and for compound testing 100 ul of a serial dilution of each compound in 2% DMSO. The plate was incubated 1 h at room temperature, centrifuged 1 min at 1000 g and counted on a Packard Top-Count. Non-specific binding counts were subtracted from each well and data was normalized to the maximum specific binding set at 100%. To calculate an IC 50 the curve was fitted using a non-linear regression model (XLfit), and the Ki was calculated using the Cheng-Prussoff equation.
For `CC1=C(C(=O)N2CC[C@@]3(OC(=O)c4ccccc43)[C@@H](C)C2)Cc2ccccc21` (racemic) [Example 10, (1RS,3′SR)-3′-Methyl-1′-[(3-methyl-1H-inden-2-yl)carbonyl]-3H-spiro[2-benzofuran-1,4′-piperidin]-3-one], the Ki was 63.1 nM.
As for `O=C(c1cc2ccccc2s1)N1CCC2(CC1)OCc1ccccc12` [Example 1, 1′-(1-Benzothien-2-ylcarbonyl)-3H-spiro[2-benzofuran-1,4′-piperidine]], the figure is 25.1 nM; as for `COc1cccc2cc(C(=O)N3CCC4(CC3)OCc3ccccc34)sc12` [Example 2, 1′-[(7-Methoxy-1-benzothien-2-yl)carbonyl]-3H-spiro[2-benzofuran-1,4′-piperidine]], 50.1 nM; as for `COc1ccc2c(c1)CC(C(=O)N1CCC3(CC1)OCc1ccccc13)S2` (stereo not shown) [Example 4, 1′-[(5-Methoxy-2,3-dihydro-1-benzothien-2-yl)carbonyl]-3H-spiro[2-benzofuran-1,4′-piperidine]], 63.1 nM.
On to `CCc1cc(Br)cc2cc(C(=O)N3CCC4(CC3)OCc3ccccc34)oc12` [Example 6, 1′-[(5-Bromo-7-ethyl-1-benzofuran-2-yl)carbonyl]-3H-spiro[2-benzofuran-1,4′-piperidine]], for which the Ki is 50.1 nM.
As for `O=C(c1nc2cc(Cl)ccc2[nH]1)N1CCC2(CC1)OCc1ccccc12` [Example 9, 1′-[(5-Chloro-1H-benzimidazol-2-yl)carbonyl]-3H-spiro[2-benzofuran-1,4′-piperidine]], the figure is 31.6 nM; as for `COc1ccc2c(c1)C1(CCN(C(=O)c3cc4cccnc4[nH]3)CC1)OC2=O` [Example 14, 6-Methoxy-1′-(1H-pyrrolo[2,3-b]pyridin-2-ylcarbonyl)-3H-spiro[2-benzofuran-1,4′-piperidin]-3-one], 200 nM.
